Source: US20250042875A1, “PESTICIDALLY ACTIVE PYRIDAZINONE COMPOUNDS” (SYNGENTA CROP PROTECTION AG, priority 2021, published 2025)

Key:
Format in all cases: in vivo
Myzus persicae [1] = assay: Activity against Myzus persicae (green peach aphid), intrinsic activity; details: 120 h, test rate 12 ppm, 5 days after infestation
Excerpt: Example B6: Activity Against Myzus persicae (Green Peach Aphid). Intrinsic Activity
Test compounds prepared from 10′000 ppm DMSO stock solutions were applied by pipette into 24-well microtiter plates and mixed with sucrose solution. The plates were closed with a stretched Parafilm. A plastic stencil with 24 holes was placed onto the plate and infested pea seedlings were placed directly on the Parafilm. The infested plate was closed with a gel blotting paper and another plastic stencil and then turned upside down. The samples were assessed for mortality 5 days after infestation.

Plutella xylostella = assay: Activity against Plutella xylostella (diamond back moth), artificial diet, eggs; details: 192 h, application rate 200 ppm, 8 days after infestation, read-out: control in at least one of the two categories (mortality or growth inhibition)
Method: Example B7: Activity Against Plutella xylostella (Diamond Back Moth)
24-well microtiter plates with artificial diet were treated with aqueous test solutions prepared from 10′000 ppm DMSO stock solutions by pipetting. After drying, Plutella eggs were pipetted through a plastic stencil onto a gel blotting paper and the plate was closed with it. The samples were assessed for mortality and growth inhibition in comparison to untreated samples 8 days after infestation.

Diabrotica balteata = assay: Activity against Diabrotica balteata (corn root worm), maize sprouts, L2 larvae; details: 96 h, application rate 200 ppm, 4 days after infestation, read-out: control in at least one of the two categories (mortality or growth inhibition)
Method: Example B2: Activity Against Diabrotica Balteata (Corn Root Worm)
Maize sprouts placed onto an agar layer in 24-well microtiter plates were treated with aqueous test solutions prepared from 10′000 ppm DMSO stock solutions by spraying. After drying, the plates were infested with L2 larvae (6 to 10 per well). The samples were assessed for mortality and growth inhibition in comparison to untreated samples 4 days after infestation.

Spodoptera littoralis = assay: Activity against Spodoptera littoralis (Egyptian cotton leaf worm), cotton leaf discs, L1 larvae; details: foliar, 72 h, application rate 200 ppm, 3 days after infestation, read-out: control in at least one of the three categories (mortality, anti-feedant effect, or growth inhibition)
Method: Example B8: Activity Against Spodoptera littoralis (Egyptian Cotton Leaf Worm)
Cotton leaf discs were placed onto agar in 24-well microtiter plates and sprayed with aqueous test solutions prepared from 10′000 ppm DMSO stock solutions. After drying the leaf discs were infested with five L1 larvae. The samples were assessed for mortality, anti-feeding effect, and growth inhibition in comparison to untreated samples 3 days after infestation. Control of Spodoptera littoralis by a test sample is given when at least one of the categories mortality, anti-feedant effect, and growth inhibition is higher than the untreated sample.

Chilo suppressalis = assay: Activity against Chilo suppressalis (striped rice stemborer), artificial diet, L2 larvae; details: 144 h, application rate 200 ppm, 6 days after infestation, read-out: control in at least one of the three categories (mortality, anti-feedant effect, or growth inhibition)
Method: Example B1: Activity Against Chilo suppressalis (Striped Rice Stemborer)
24-well microtiter plates with artificial diet were treated with aqueous test solutions prepared from 10′000 ppm DMSO stock solutions by pipetting. After drying, the plates were infested with L2 larvae (6-8 per well). The samples were assessed for mortality, anti-feeding effect, and growth inhibition in comparison to untreated samples 6 days after infestation. Control of Chilo suppressalis by a test sample is given when at least one of the categories mortality, anti-feedant effect, and growth inhibition is higher than the untreated sample.

Myzus persicae [2] = assay: Activity against Myzus persicae (green peach aphid), feeding/contact activity; details: 144 h, application rate 200 ppm, 6 days after infestation
Method: Example B5: Activity Against Myzus persicae (Green Peach Aphid). Feeding/Contact Activity
Sunflower leaf discs were placed onto agar in a 24-well microtiter plate and sprayed with aqueous test solutions prepared from 10′000 ppm DMSO stock solutions. After drying, the leaf discs were infested with an aphid population of mixed ages. The samples were assessed for mortality 6 days after infestation.

Euschistus heros = assay: Activity against Euschistus heros (neotropical brown stink bug), soybean leaves, N2 nymphs; details: 120 h, application rate 200 ppm, 5 days after infestation, read-out: effect in at least one of the two categories (mortality or growth inhibition)
Method: Example B3: Activity Against Euschistus heros (Neotropical Brown Stink Bug)
Soybean leaves on agar in 24-well microtiter plates were sprayed with aqueous test solutions prepared from 10′000 ppm DMSO stock solutions. After drying the leaves were infested with N2 nymphs. The samples were assessed for mortality and growth inhibition in comparison to untreated samples 5 days after infestation.

CC(NC(=O)c1cc(Cl)cc(C(F)(F)F)c1)c1nccnc1-c1ccc(=O)n(C)n1 (centres unmarked) [P7, 3-chloro-N-[1-[3-(1-methyl-6-oxo-pyridazin-3-yl)pyrazin-2-yl]ethyl]-5-(trifluoromethyl)benzamide]
≥ 80%: mortality at 12 ppm (Myzus persicae [1]) | percent control (mortality or growth inhibition) at 200 ppm (Plutella xylostella) | percent control (mortality or growth inhibition) at 200 ppm (Diabrotica balteata) | percent control (mortality, anti-feedant effect or growth inhibition) at 200 ppm (Spodoptera littoralis) | percent control (mortality, anti-feedant effect or growth inhibition) at 200 ppm (Chilo suppressalis) | mortality at 200 ppm (Myzus persicae [2])

C[C@H](NC(=O)c1cc(C(F)(F)F)cc(C(F)(F)F)c1)c1ncnn1-c1ccc(=O)n(C)n1 [P1, N-[(1S)-1-[2-(1-methyl-6-oxo-pyridazin-3-yl)-1,2,4-triazol-3-yl]ethyl]-3,5-bis(trifluoromethyl)benzamide]
≥ 80%: mortality at 12 ppm (Myzus persicae [1]) | percent control (mortality or growth inhibition) at 200 ppm (Plutella xylostella) | percent control (mortality or growth inhibition) at 200 ppm (Diabrotica balteata) | percent effect (mortality or growth inhibition) at 200 ppm (Euschistus heros) | percent control (mortality, anti-feedant effect or growth inhibition) at 200 ppm (Spodoptera littoralis) | percent control (mortality, anti-feedant effect or growth inhibition) at 200 ppm (Chilo suppressalis) | mortality at 200 ppm (Myzus persicae [2])

CC(NC(=O)c1cc(OC(F)F)cc(C2(C#N)CC2)c1)c1nccnc1-c1ccc(=O)n(C)n1 (centres unmarked) [P44, 3-(1-cyanocyclopropyl)-5-(difluoromethoxy)-N-[1-[3-(1-methyl-6-oxo-pyridazin-3-yl)pyrazin-2-yl]ethyl]benzamide]
≥ 80%: mortality at 12 ppm (Myzus persicae [1]) | percent control (mortality or growth inhibition) at 200 ppm (Plutella xylostella) | percent effect (mortality or growth inhibition) at 200 ppm (Euschistus heros) | percent control (mortality, anti-feedant effect or growth inhibition) at 200 ppm (Spodoptera littoralis) | percent control (mortality, anti-feedant effect or growth inhibition) at 200 ppm (Chilo suppressalis) | mortality at 200 ppm (Myzus persicae [2])

C[C@H](NC(=O)c1cc(OC(F)F)cc(C2(C#N)CC2)c1)c1ncnn1-c1ccc(=O)n(C)n1 [P45, 3-(1-cyanocyclopropyl)-5-(difluoromethoxy)-N-[(1S)-1-[2-(1-methyl-6-oxo-pyridazin-3-yl)-1,2,4-triazol-3-yl]ethyl]benzamide]
≥ 80%: mortality at 12 ppm (Myzus persicae [1]) | percent effect (mortality or growth inhibition) at 200 ppm (Euschistus heros) | percent control (mortality, anti-feedant effect or growth inhibition) at 200 ppm (Chilo suppressalis) | mortality at 200 ppm (Myzus persicae [2])

CCn1nc(-n2ncnc2[C@H](C)NC(=O)c2cc(Cl)cc(S(=O)(=O)C(F)(F)F)c2)ccc1=O [P17, 3-chloro-N-[(1S)-1-[2-(1-ethyl-6-oxo-pyridazin-3-yl)-1,2,4-triazol-3-yl]ethyl]-5-(trifluoromethylsulfonyl)benzamide]
≥ 80%: mortality at 12 ppm (Myzus persicae [1]) | percent control (mortality or growth inhibition) at 200 ppm (Plutella xylostella) | percent control (mortality or growth inhibition) at 200 ppm (Diabrotica balteata) | percent control (mortality, anti-feedant effect or growth inhibition) at 200 ppm (Spodoptera littoralis) | percent control (mortality, anti-feedant effect or growth inhibition) at 200 ppm (Chilo suppressalis) | mortality at 200 ppm (Myzus persicae [2])

CC(NC(=O)c1cc(C(F)(F)F)cc(C2(C#N)CC2)c1)c1nccnc1-c1ccc(=O)n(C)n1 (centres unmarked) [P24, 3-(1-cyanocyclopropyl)-N-[1-[3-(1-methyl-6-oxo-pyridazin-3-yl)pyrazin-2-yl]ethyl]-5-(trifluoromethyl) benzamide]
≥ 80%: mortality at 12 ppm (Myzus persicae [1]) | percent control (mortality or growth inhibition) at 200 ppm (Plutella xylostella) | percent control (mortality, anti-feedant effect or growth inhibition) at 200 ppm (Spodoptera littoralis) | percent control (mortality, anti-feedant effect or growth inhibition) at 200 ppm (Chilo suppressalis) | mortality at 200 ppm (Myzus persicae [2])

C[C@@H](c1ncnn1C1=NN(C)C(=O)CC1)N(C)C(=O)c1cc(Cl)cc(S(=O)(=O)C(F)(F)F)c1 [P22, 3-chloro-N-methyl-N-[(1S)-1-[2-(1-methyl-6-oxo-4,5-dihydropyridazin-3-yl)-1,2,4-triazol-3-yl]ethyl]-5-(trifluoromethylsulfonyl) benzamide]
≥ 80%: mortality at 12 ppm (Myzus persicae [1]) | percent control (mortality or growth inhibition) at 200 ppm (Plutella xylostella) | percent control (mortality or growth inhibition) at 200 ppm (Diabrotica balteata) | percent control (mortality, anti-feedant effect or growth inhibition) at 200 ppm (Spodoptera littoralis) | percent control (mortality, anti-feedant effect or growth inhibition) at 200 ppm (Chilo suppressalis) | mortality at 200 ppm (Myzus persicae [2])

CC(NC(=O)c1cc(Cl)nc(C2(C#N)CC2)c1)c1nccnc1-c1ccc(=O)n(C)n1 (centres unmarked) [P34, 2-chloro-6-(1-cyanocyclopropyl)-N-[1-[3-(1-methyl-6-oxo-pyridazin-3-yl)pyrazin-2-yl]ethyl]pyridine-4-carboxamide]
≥ 80%: mortality at 12 ppm (Myzus persicae [1]) | percent control (mortality or growth inhibition) at 200 ppm (Plutella xylostella) | percent control (mortality, anti-feedant effect or growth inhibition) at 200 ppm (Spodoptera littoralis) | percent control (mortality, anti-feedant effect or growth inhibition) at 200 ppm (Chilo suppressalis) | mortality at 200 ppm (Myzus persicae [2])

CC(NC(=O)c1cc(Br)cc(C(F)(F)F)c1)c1nccnc1-c1ccc(=O)n(C)n1 (centres unmarked) [P10, 3-bromo-N-[1-[3-(1-methyl-6-oxo-pyridazin-3-yl)pyrazin-2-yl]ethyl]-5-(trifluoromethyl)benzamide]
≥ 80%: mortality at 12 ppm (Myzus persicae [1]) | percent control (mortality or growth inhibition) at 200 ppm (Plutella xylostella) | percent control (mortality or growth inhibition) at 200 ppm (Diabrotica balteata) | percent control (mortality, anti-feedant effect or growth inhibition) at 200 ppm (Spodoptera littoralis) | percent control (mortality, anti-feedant effect or growth inhibition) at 200 ppm (Chilo suppressalis) | mortality at 200 ppm (Myzus persicae [2])

C[C@H](NC(=O)c1cc(Cl)nc(C2(C#N)CC2)c1)c1ncnn1-c1ccc(=O)n(C)n1 [P35, 2-chloro-6-(1-cyanocyclopropyl)-N-[(1S)-1-[2-(1-methyl-6-oxo-pyridazin-3-yl)-1,2,4-triazol-3-yl]ethyl]pyridine-4-carboxamide]
≥ 80%: mortality at 12 ppm (Myzus persicae [1]) | percent control (mortality or growth inhibition) at 200 ppm (Plutella xylostella) | percent effect (mortality or growth inhibition) at 200 ppm (Euschistus heros) | percent control (mortality, anti-feedant effect or growth inhibition) at 200 ppm (Chilo suppressalis) | mortality at 200 ppm (Myzus persicae [2])

C[C@H](NC(=O)c1cc(Cl)cc(C(F)(F)F)c1)c1ncnn1-c1ccc(=O)n(C)n1 [P4, 3-chloro-N-[(1S)-1-[2-(1-methyl-6-oxo-pyridazin-3-yl)-1,2,4-triazol-3-yl]ethyl]-5-(trifluoromethyl) benzamide]
≥ 80%: mortality at 12 ppm (Myzus persicae [1]) | percent control (mortality or growth inhibition) at 200 ppm (Plutella xylostella) | percent control (mortality or growth inhibition) at 200 ppm (Diabrotica balteata) | percent effect (mortality or growth inhibition) at 200 ppm (Euschistus heros) | percent control (mortality, anti-feedant effect or growth inhibition) at 200 ppm (Spodoptera littoralis) | percent control (mortality, anti-feedant effect or growth inhibition) at 200 ppm (Chilo suppressalis)

CC(NC(=O)c1cc(Br)cc(C(F)(F)F)c1)c1nccnc1-c1cn(CC(F)F)c(=O)cn1 (centres unmarked) [P49, 3-bromo-N-[1-[3-[4-(2,2-difluoroethyl)-5-oxo-pyrazin-2-yl]pyrazin-2-yl]ethyl]-5-(trifluoromethyl)benzamide]
≥ 80%: mortality at 12 ppm (Myzus persicae [1]) | percent control (mortality or growth inhibition) at 200 ppm (Plutella xylostella) | percent control (mortality or growth inhibition) at 200 ppm (Diabrotica balteata) | percent control (mortality, anti-feedant effect or growth inhibition) at 200 ppm (Spodoptera littoralis) | percent control (mortality, anti-feedant effect or growth inhibition) at 200 ppm (Chilo suppressalis) | mortality at 200 ppm (Myzus persicae [2])
